{
  "source": "patent USRE49351E1",
  "about": "“Cytoprotective agent” (Biogen MA Inc., priority 2009, dated 2023)",
  "test_system": "crab-eating monkey cerebral infarction model",
  "test": "Crab-eating monkey cerebral infarction model (thrombotic middle cerebral artery occlusion)",
  "assay_type": "in vivo",
  "settings": "mean ± S.D.",
  "method": "A reducing effect of a cerebral infarction size and an improving effect of a neurological symptom of SMTP-7 in a crab-eating monkey cerebral infarction model were studied according to the following testing method.\nSMTP-7 administration group: 10 mg/kg, 2 to 3 year old male crab-eating monkeys, 6 monkeys\nAdministration method of test substance: The administration volume was set at 10 mL/kg. A Surflo indwelling needle was indwelled in the left saphenous vein, 1 mg/kg (1 mL/kg) was administered 1 hour after ischemia as a bolus over 5 sec, then 9 mg/kg (9 mL/kg) was administered continuously over 30 min using a syringe pump.\nPreparation of administration liquid: SMTP-7 was dissolved in a physiological saline solution at 1 mg/mL. More particularly, to 70.0 mg of a SMTP-7 sodium salt (containing 63.1 mg of SMTP-7) was added 63.1 mL of a physiological saline solution, and the liquid was stirred by a magnetic stirrer under heating in a hot-water bath (37° C.) for dissolution. An ultrasonic treatment was conducted according to need. After dissolution the liquid was subjected to filter sterilization by a sterile filter (0.22 μm, made of cellulose acetate). The administration liquid was prepared before using. After the preparation it was kept in a 37° C. hot-water bath until immediately before the use, and the administration was finished within 4 hours after the preparation.\nThe treatment of cerebral infarction was conducted according to the standard experimental protocol (SPHPR710-15A). More particularly, after extirpating the right eyeball, the eyeground bone outside the optic nerve exit was removed by a dental drill to expose the dura mater. The dura mater was carefully detached to identify the middle cerebral artery. The origin part of the middle cerebral artery was separated from the arachnoid mater and a light irradiation probe for generating a thrombus was fixed on the middle cerebral artery. At the distal end of the probe a probe of a pulse Doppler blood flowmeter (Crystal Bio, PDV-20) was placed. An intravenous administration of rose bengal (Wako Pure Chemical Industries, Ltd.) (20 mg/kg) over 6 min was initiated and an irradiation with green light with the wavelength of 540 nm (1.40 million LUX) was conducted for 20 min to block the middle cerebral artery by a thrombus. The initiation time of the light irradiation and the administration of the rose Bengal was defined as the initiation time of ischemia. The middle cerebral artery blood flow was measured by the pulse Doppler blood flowmeter continuously for 2 hours from the initiation time of the light irradiation and then the incision was closed. A series of procedures were carried out completely under an operating microscope to minimize intraoperative hemorrhage to the utmost. Further, the rectal temperature of an animal under operation was monitored, and the animal was kept warmed by a heating pad, so as to maintain the body temperature of the animal in a physiological range (37.0 to 38.5° C.).\nNeurological symptoms as described below were observed 24 hours after ischemia according to J. Neurosci. Meth., 2001; 105: 45-53.\nAfter the neurological symptom observation 24 hours after the operation, a euthanasia treatment was conducted by means of a megadose of pentobarbital and the brain was extirpated. Six mm-thick coronal slices were prepared and photographed for quantitative determination of a hemorrhagic infarction. Thereafter, the infarction area was stained in a 2% TTC solution and photographs were taken for quantitative determination of an infarction size. For evaluations of the hemorrhagic infarction and the infarction area, the occipital lobe side of each slice was used.\nPhotographs of an individual were converted to TIF images and hemorrhagic infarction areas and the respective infarction areas were marked by Photoshop 7.0 (Adobe), which sizes were then measured by Scion Image 0.4.0.3 (Scion Corporation). […]",
  "key": {"[1]": {"settings": "10 mg/kg i.v. 1 hour after ischemia, 24 hours after ischemia"}},
  "note": "Marks after values point to notes of the source that are not given here.",
  "data": [
    {"compound": "CC(C)=CCC/C(C)=C/CC[C@@]1(C)Oc2c(c(O)cc3c2CN(CCC[C@@H](C(=O)O)N2Cc4c(cc(O)c5c4O[C@](C)(CC/C=C(\\C)CCC=C(C)C)[C@@H](O)C5)C2=O)C3=O)C[C@@H]1O", "note": "[SMTP-7]", "values": [
      {"measurement": "Occlusion Time", "setting": "0~60 min after ischemia (before administration), 10 mg/kg i.v.", "value": "45.5 ± 3.8", "unit": "min"},
      {"measurement": "Hemorrhagic infarction area size", "setting": "[1]", "value": "14.1 ± 7.4 (P < 0.05) mm^2"},
      {"measurement": "cerebral infarction size: Basal ganglion", "setting": "[1]", "value": "1419.7 ± 633.8* mm^3"},
      {"measurement": "cerebral infarction size: Cerebral cortex", "setting": "[1]", "value": "237.8 ± 198.8", "unit": "mm^3"},
      {"measurement": "cerebral infarction size: Total", "setting": "[1]", "value": "1745.1 ± 749.5* mm^3"},
      {"measurement": "cerebral infarction size: White matter", "setting": "[1]", "value": "87.7 ± 71.8", "unit": "mm^3"},
      {"measurement": "neurological symptom score: Consciousness", "setting": "[1]", "value": "7.7 ± 2.0"},
      {"measurement": "neurological symptom score: Motor system", "setting": "[1]", "value": "10.7 ± 2.7"},
      {"measurement": "neurological symptom score: Sensory system", "setting": "[1]", "value": "7.5 ± 1.6"},
      {"measurement": "neurological symptom score: Skeletal muscle coordination system", "setting": "[1]", "value": "5.3 ± 2.4"},
      {"measurement": "neurological symptom score: Total", "setting": "[1]", "value": "31.2 ± 7.9"},
      {"measurement": "Total Occlusion Time", "setting": "10 mg/kg i.v. 1 hour after ischemia, measured for 2 hours, 6 monkeys", "value": "86.8 ± 18.8", "unit": "min"},
      {"measurement": "Time to Occlusion", "setting": "10 mg/kg i.v. 1 hour after ischemia, middle cerebral artery blood flow, 6 monkeys", "value": "6.9 ± 2.5", "unit": "min"},
      {"measurement": "Occlusion Time", "setting": "60~120 min after ischemia, 10 mg/kg i.v. 1 hour after ischemia", "value": "41.3 ± 18.9", "unit": "min"}
    ]}
  ]
}
